In US20250020635A1, “ASSAY METHODS AND USES THEREOF FOR SCREENING ALZHEIMER'S DISEASE TREATMENT COMPOUNDS” (priority 2023, published 2025):
Entries after “also recorded” stand apart in the source; their conditions may differ. Like-named read-outs stand apart in the source and are kept apart here.

Key:
[1] = system: HMC3 cells; test: Microglial phagocytosis/cell health high-content assay, HMC3 cells; format: cell-based; conditions: for Ave. % Cell Count @ 60 uM HMC3 cells / Ave. % Phagocytosis @ 60 uM HMC3 cells: 48 hrs, compared to control; for EC50: read-out: stimulation of phagocytosis EC50; for IC50: read-out: inhibition of phagocytosis IC50
Method: (§1) The assay introduced here is a simplified cellular imaging assay without any fixation and washing steps, while producing multiparameter measurements with high capacity using a 384-well plate format. The assay procedures include plating cells on day 1, incubating cell plates overnight before treating cells on day 2, adding pHrodo™-myelin/membrane debris to cell plates on day 3, and 20 hr later, staining cell nuclei with Hoechst-33342 for 30 min before performing high-content imaging on day 4. Three selected parameters are measured from cells: 1) mean total fluorescence intensity per cell of pHrodo™-myelin/membrane debris in phagocytosis vesicles to quantify phagocytosis; 2) cell counts per well to quantify treatment effects on proliferation and cell death; and 3) average nuclear intensity to quantify treatment-induced nuclear changes such as in apoptosis. The assay has been used on HMC3 cells (an immortalized human microglial cell line), BV2 cells (an immortalized mouse microglial cell line), and primary microglia isolated from mouse brains. For initial assay attempts, we recommend using HMC3 cells available from the ATCC.
(§2) All collected raw data are normalized to the untreated control with following formula: % of control=100×(X−Min)/(Max−Min). Factors in the formula are: X is raw data from a treated well, Max is an average measurement from pHrodo™-myelin seeded but untreated wells, and Min is an average measurement from no pHrodo™-myelin untreated wells. Normalized data are used for curve fitting that is done with the variable slope (four parameters) using the Prism software.
(§3) To ensure that the measurements reflect the steady state of compound treatment effects and cell health, the assay was set with a total compound treatment time of 48 hr, including pHrodo™-myelin/membrane debris seeding performed 20-24 hr after compound addition. […] Among many available quantitative measurements from the image analysis, we selected three parameters for the assay:
(§4) 1) The mean total intensity of phagocytosis vesicles/cell—to measure phagocytosis. There are multiple parameters generated from the image analysis, including phagocytosis vesicle area, number, and various fluorescence intensity measurements. Comparing these parameters, the total fluorescence intensity of vesicles/cell is the most sensitive one and was chosen for quantifying phagocytosis.
(§5) 2) The total cell counts—to measure overall cell viability, which is affected by proliferation and cell death. We chose to take 4 images/well (with the 10× objective lens) that cover about 50% of the total area of a well in a 384-well plate to represent cell count of the well.
(§6) 3) The average nuclear intensity—to measure drug-induced apoptosis, with high signal indicating nuclear condescension (a sign of early apoptosis) and low signal indicating DNA degradation (a sign of later apoptosis, when activated caspases digest DNA).
(§7) A phenotypic high-content imaging assay with simultaneous measurements of phagocytosis, cell number, and nuclear intensity was used to assess both cellular pharmacology and cell health. Model cell lines BV2 (immortalized mouse microglia, a gift from Dr. Michelle Block's laboratory at IUSM) and HMC3 (immortalized human microglia, obtained from ATCC, CRL-3304) were used to provide adequate throughput. Cells were cultured in DMEM GlutaMax media (ThermoFisher) containing 10% FBS and Pen-Strep in a 37° C. 5% CO2 incubator, plated in Corning Falcon 384 well Optilux Black and clear bottom plates: 400 cells/45 μl/well (BV2 cells), 600 cells/45 μl/well (HMC3 cells) and 2000 cell/45 μl/well (primary cells), and treated with 10× serially diluted compounds (60 μM-3 nM) for 48 hrs at 37° C. […]

[2] = system: BV2 cells; test: Microglial phagocytosis/cell health high-content assay, BV2 cells; format: cell-based; conditions: for Ave. % Cell Count @ 60 uM BV2 cells / Ave. % Phagocytosis @ 60 uM BV2 cells: 48 hrs, compared to control; for phagocytosis increase against cell count decline: HMC3 and BV2 cells (Table 6, FIGS. 21, 22); for IC50 / EC50: Mus musculus, BV-2; for IC50: read-out: cell count decrease IC50
Method: as §1, §2, §3, §4, §5, §6, §7

[3] = molecular target: T1, PLCγ2-HiBit (Homo sapiens, UniProt P16885); test: Cellular thermal shift assay (SplitLuc CETSA), PLCγ2-HiBit in HMC3 cells; format: cell-based; conditions: for PLCγ2-HiBit %, percent luminescence at highest dose compared to control (DMSO): 100 μM
T1 construct: expressed in transfected cells; host or cells: HMC3 cells
T1 sequence (P16885 1-1265): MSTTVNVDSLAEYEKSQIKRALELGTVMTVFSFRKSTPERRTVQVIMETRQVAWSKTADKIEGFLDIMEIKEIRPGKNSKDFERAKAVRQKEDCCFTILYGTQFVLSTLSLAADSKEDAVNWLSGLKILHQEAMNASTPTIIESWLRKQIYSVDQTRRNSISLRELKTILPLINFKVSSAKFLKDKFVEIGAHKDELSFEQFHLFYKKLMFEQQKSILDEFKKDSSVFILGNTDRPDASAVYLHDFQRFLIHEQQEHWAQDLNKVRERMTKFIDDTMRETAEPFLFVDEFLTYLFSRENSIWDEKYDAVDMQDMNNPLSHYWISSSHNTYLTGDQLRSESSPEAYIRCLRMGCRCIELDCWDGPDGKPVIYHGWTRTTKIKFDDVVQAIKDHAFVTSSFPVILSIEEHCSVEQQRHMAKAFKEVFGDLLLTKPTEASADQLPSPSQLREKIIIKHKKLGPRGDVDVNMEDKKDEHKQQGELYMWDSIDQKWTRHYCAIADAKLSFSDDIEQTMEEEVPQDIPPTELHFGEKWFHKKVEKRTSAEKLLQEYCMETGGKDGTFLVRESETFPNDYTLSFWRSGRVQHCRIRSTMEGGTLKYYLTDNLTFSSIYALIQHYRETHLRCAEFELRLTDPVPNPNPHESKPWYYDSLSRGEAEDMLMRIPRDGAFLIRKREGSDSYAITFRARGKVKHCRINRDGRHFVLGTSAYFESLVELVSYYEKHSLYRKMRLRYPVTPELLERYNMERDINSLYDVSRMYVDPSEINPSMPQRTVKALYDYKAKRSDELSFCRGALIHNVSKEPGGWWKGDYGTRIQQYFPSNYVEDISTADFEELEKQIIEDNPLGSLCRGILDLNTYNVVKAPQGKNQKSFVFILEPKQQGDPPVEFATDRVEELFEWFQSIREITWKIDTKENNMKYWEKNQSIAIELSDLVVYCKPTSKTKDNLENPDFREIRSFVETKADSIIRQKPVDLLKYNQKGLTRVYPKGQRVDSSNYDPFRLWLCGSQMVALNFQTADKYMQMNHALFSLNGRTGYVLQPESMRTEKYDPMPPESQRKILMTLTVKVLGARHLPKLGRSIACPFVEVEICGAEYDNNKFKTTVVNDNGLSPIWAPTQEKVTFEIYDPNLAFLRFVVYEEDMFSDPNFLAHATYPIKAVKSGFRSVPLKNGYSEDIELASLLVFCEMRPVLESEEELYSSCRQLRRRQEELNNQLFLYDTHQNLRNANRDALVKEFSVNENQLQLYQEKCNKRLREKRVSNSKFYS
Description: These compounds have been evaluated using a wide variety of assay classes namely target engagement utilizing cellular thermal shift assay (CETSA),^34 affinity selection mass spectrometry (ASMS),^35 biochemical activity employing the fluorogenic probe XY-69,^36 and cellular activity testing for phagocytosis. Cellular Thermal Shift Assays (CETSA) assess cellular target engagement by quantifying changes in protein thermal stability upon ligand binding to endogenous proteins in intact cells.^34 For SAR studies, a split Nano Luciferase (SplitLuc CETSA) version of the assay was utilized to provide sufficient throughput.^37,38 HMC3 cells were stably transfected with PLCγ2-HiBit to enable protein expression in a physiologically relevant cellular context. The thermal stability of this HiBit-labeled protein in intact cells was measured in the following two formats. In the initial screen, using 96-well plates, cells were treated with FBS analogs at a single concentration (100 μM) at 37° C. for 60 min and then exposed to a 3-minute isothermal heating step at 45.9° C. (experimentally determined Tm of PLCγ2-HiBit). Luminescence detection was then conducted with the Nano-Glo HiBit Lytic detection kit (Promega, Cat. N3040).^38 Compound treatment was performed in triplicate, and raw signals were normalized to the mean of the controls (in the same plate) as % of control. When the difference in compound-treated cells >control mean+3SD, the compound was considered positive and selected for further testing with dose-response CETSA. In the dose response CETSA, cells were treated with decreasing concentrations from 100 μM with 1:3 serial dilutions to generate an 8-point curve. An AC50 was calculated with the % of control data using a four-parameter logistic curve regression model, and the percent luminescence remaining at the highest concentration is also reported for the compounds when the difference from the DMSO control is greater than 3× the standard deviation (SD). Otherwise, an AC50 was not calculated.

[4] = system: HiBit only; test: Cellular thermal shift assay (CETSA), HiBit only control; format: cell-based, human; conditions: for HiBit only %, percent luminescence at highest dose with HiBit only compared to control (DMSO): 100 μM; for HiBit only % @100 μM: Table 1
[5] = system: MDCK; test: MDCK permeability; format: in vitro ADME; conditions: estimate of intestinal absorption
Method: (§8) Physicochemical and ADME properties were determined using the following assays: microsomal stability intrinsic clearance (Clint) in mouse liver microsomal solution, MDCK permeability (Papp), protein binding (fu) in mouse plasma, and kinetic solubility in pH 7.4 phosphate buffer (Table 7).

[6] = Kinetic solubility in pH 7.4 phosphate buffer; format: physicochemical
Method: as §8

[7] = Table 1, CETSA dose response, read-out: AC50
[8] = Table 5, 8-point dose response from 100 μM, HMC3 cells, 45.9° C., read-out: AC50, concentration that induced a half-maximum loss of luminesce compared to control
[9] = Homo sapiens, HMC3, 48 h, HMC3 cells, 48 hours treatment

Compound: Lipopolysaccharides [LPS, reference compound]
- response (phagocytosis, cell count, nuclear intensity) ([1]; HMC3 cells, 48 hr): did not respond to LPS treatment
- changes in nuclear intensity ([2]; BV2 cells, 48 hr): no nuclear intensity changes up to 10 μg/ml LPS; also recorded: no changes in nuclear intensity
- inhibition of cell count IC50 ([2]; BV2 cells, 48 hr): 0.122 µg/mL
- stimulation of phagocytosis EC50 ([2]; BV2 cells, 48 hr): 0.255 µg/mL

Compound: Cc1cccc(NS(=O)(=O)c2c(C)cc(C)cc2C)c1 [Compound 5]
- PLCγ2-HiBit %, percent luminescence at highest dose compared to control (DMSO) [3]: 54%
- PLCy2-HiBit % @100 ([3]; Table 1): 54%
- AC50 [3, 7]: > 100 µM
- AC50 [3, 8]: > 100 µM
- HiBit only %, percent luminescence at highest dose with HiBit only compared to control (DMSO) [4]: 95%
- HiBit only % @100 μM [4]: 96%
- Ave. % Cell Count @ 60 uM HMC3 cells [1]: 78%
- Ave. % Phagocytosis @ 60 uM HMC3 cells [1]: 111%
- Ave. % Cell Count @ 60 uM BV2 cells [2]: 45%
- Ave. % Phagocytosis @ 60 uM BV2 cells [2]: 165%
- phagocytosis increase against cell count decline [2]: the increase was paired with a sharp cell count decline

Compound: Cc1cc(Br)ccc1S(=O)(=O)Nc1cccc(C(F)(F)F)c1 [Compound 10]
- PLCγ2-HiBit %, percent luminescence at highest dose compared to control (DMSO) [3]: 17%
- PLCy2-HiBit % @100 ([3]; Table 1): 17%
- AC50 [3, 7]: 57 µM
- AC50 [3, 8]: 57 µM
- HiBit only %, percent luminescence at highest dose with HiBit only compared to control (DMSO) [4]: 40%
- HiBit only % @100 μM [4]: 40%
- Ave. % Cell Count @ 60 uM HMC3 cells [1]: 11%
- Ave. % Phagocytosis @ 60 uM HMC3 cells [1]: 93%
- Ave. % Cell Count @ 60 uM BV2 cells [2]: 1%
- Ave. % Phagocytosis @ 60 uM BV2 cells [2]: 434%
- phagocytosis increase against cell count decline [2]: the increase was paired with a sharp cell count decline

Compound: Cc1cc(C)c(S(=O)(=O)Nc2cccc(C(F)F)c2)c(C)c1 [Compound 7]
- PLCγ2-HiBit %, percent luminescence at highest dose compared to control (DMSO) [3]: 78%
- PLCy2-HiBit % @100 ([3]; Table 1): 78%
- HiBit only %, percent luminescence at highest dose with HiBit only compared to control (DMSO) [4]: 104%
- HiBit only % @100 μM [4]: 104%
- Ave. % Cell Count @ 60 uM HMC3 cells [1]: 6%
- Ave. % Phagocytosis @ 60 uM HMC3 cells [1]: 0%
- Ave. % Cell Count @ 60 uM BV2 cells [2]: 2%
- Ave. % Phagocytosis @ 60 uM BV2 cells [2]: 0%
- Papp, MDCK permeability [5]: 37.4 ×10−^6 cm/s
- Kinetic solubility [6]: 41 to 60 µM

Compound: CN1CCN(CCOc2cc(OC3CCOCC3)c3c(Nc4c(Cl)ccc5c4OCO5)ncnc3c2)CC1 [Saracatinib, reference compound]
- concentrations showing cytotoxicity ([1]; HMC3 cells, 48 hours treatment): > 10 µM
- EC50 ([1]; HMC3 cells, 48 hours treatment): 0.182 µM
- EC50 [1, 9]: < 0.2 µM
- concentrations showing cell count decreases ([2]; BV2 cells, 48 hours treatment): > 1 µM
- IC50 ([2]; BV2 cells, 48 hours treatment): 0.833 µM
- EC50 ([2]; BV2 cells, 48 hours treatment, read-out: increased phagocytosis EC50): 0.266 µM

Compound: O=S(=O)(Nc1cccc(C(F)(F)F)c1)c1ccc(Cl)cc1Cl [Compound 9]
- PLCγ2-HiBit %, percent luminescence at highest dose compared to control (DMSO) [3]: 32%
- PLCy2-HiBit % @100 ([3]; Table 1): 32%
- AC50 [3, 7]: 71 µM
- AC50 [3, 8]: 71 µM
- HiBit only %, percent luminescence at highest dose with HiBit only compared to control (DMSO) [4]: 38%
- HiBit only % @100 μM [4]: 38%
- Ave. % Cell Count @ 60 uM HMC3 cells [1]: 16%
- Ave. % Phagocytosis @ 60 uM HMC3 cells [1]: 281%
- Ave. % Cell Count @ 60 uM BV2 cells [2]: 9%
- Ave. % Phagocytosis @ 60 uM BV2 cells [2]: 581%
- phagocytosis increase against cell count decline [2]: the increase was paired with a sharp cell count decline

Compound: CC[C@H](Nc1ncnc2[nH]cnc12)c1nc2cccc(F)c2c(=O)n1-c1ccccc1 [Idelalisib, reference compound]
- IC50 ([1]; HMC3 cells, 48 hours treatment): 0.526 µM
- IC50 [1, 9]: ~0.5 µM
- effect on phagocytosis ([2]; BV2 cells, 48 hours treatment): did not inhibit phagocytosis in BV2 cells, but increased phagocytosis in parallel with decreasing cell counts and increasing nuclear intensity
- EC50 ([2]; BV2 cells, 48 hours treatment, 60 μM the maximal dose, read-out: stimulation of phagocytosis EC50): > 60 µM
- IC50 ([2]; BV2 cells, 48 hours treatment): 22 µM
- EC50 ([2]; BV2 cells, 48 hours treatment, read-out: nuclear intensity increase EC50): 4.14 µM
